One compound from patent US20100217003A1, “1,2,3,4-TETRAHYDROISOQUINOLINE DERIVATIVES HAVING EFFECTS OF PREVENTING AND TREATING DEGENERATIVE AND INFLAMMATORY DISEASES” (priority 2006, published 2010) can be followed below.

One series relates to mouse liver cell. In words: Toxicity to mouse liver cell. It is filed as in vivo. The note with it: FIG. 16.
The test system of a further series is BV-2 cell. The series is described as follows: Production of NADPH oxidase-derived superoxide in LPS-stimulated BV-2 cells (WST-1). Type of series: cell-based, mouse. The protocol:
Measurement of Superoxide Production
BV-2 microglial cells were planted in a 96-well Petri dish at 0.5×10^5 cells/ml. After a 24-hour culture, the cells were washed twice with Hank's balanced salt solution (HBSS) without phenol red and treated with EHMTIQ (11a) and WST-1. However, some samples were not treated with 20 ? superoxide dismutase (SOD; 800 UI/ml). All samples were incubaed at 37° C. for 10 minutes. The absorbance of a sample was read at 450 nm using a SpectraMax Plus microplate spectrophotometer. The yield of superoxide was calculated according to difference in absorbance value between the samples with and without SOD.
The activation of a microglial cell led to the activation of NADPH oxidase and the production of superoxide. Accordingly, the assay was performed to determine whether EHMTIQ (11a) affects production of NADPH oxidase-derived superoxide. The LPS-stimulated BV-2 cell samples were treated with various concentrations of EHMTIQ (11a) and then the level of released superoxide was measured. The results are illustrated in FIG. 2.

A further series has as its system NF-kB p65. The series is described as follows: NF-kB p65 shift to nucleus in LPS-treated cells (Western blot). It is filed as cell-based, mouse. The note with it: 10 (unit as image). The protocol: Assay for NF-kB p65 Shift to Nucleus
The cells were washed with cold phosphate buffered saline (PBS) and gently suspended in 400 ? buffer solution containing 10 mM HEPES (pH 7.9), 10 mM KCl, 0.1 mM EDTA, 0.1 mM EGTA, 1 mM DTT and 0.5 mM PMSF. The cell suspension was placed on ice for 15 minutes, and reacted with 25 ? NP-40 (0.5%) for 10 seconds. Cen-trifugation for 30 seconds yielded nuclear pellets, which were then resuspended in 50 ? of cold PBS containing 20 mM HEPES (pH 7.9), 400 mM NaCl, and 1 mM each of DTT, EDTA, EGTA and PMSF. The suspension was vortexted for 15 minutes. The nuclear extract was centrifuged at 11,000×g for 15 minutes to get supernatant solution, whose protein content was measured. Equal amounts of the cell extract (5 ? ) were subjected to electrophoresis in a 10% SDS-polyacrylamide gel and then transferred onto a polyvinylidene difluoride-nitrocellulose membrane. The membrane was blocked with TBST containing 8% skim milk at RT for one hour, incubated with primary antibody, anti-NF-kB p65 antibody (1:500 dilution), at 4° C. overnight, and further incubated with secondary antibody conjugated with horseradish peroxidase for one more hour. Protein bands were detected by a chemiluminescence detection method according to the manufacturer's indication.
A transcription factor, NF-kB, shifts into a nucleus to regulate expression of several inflammatory genes. […]
Background: Immunoblotting shows a protein as a band on a membrane.

Series [1] has as its target T1, GTP cyclohydrolase I (GTPCH) (Homo sapiens, UniProt P30793).
T1 sequence (P30793 1-250): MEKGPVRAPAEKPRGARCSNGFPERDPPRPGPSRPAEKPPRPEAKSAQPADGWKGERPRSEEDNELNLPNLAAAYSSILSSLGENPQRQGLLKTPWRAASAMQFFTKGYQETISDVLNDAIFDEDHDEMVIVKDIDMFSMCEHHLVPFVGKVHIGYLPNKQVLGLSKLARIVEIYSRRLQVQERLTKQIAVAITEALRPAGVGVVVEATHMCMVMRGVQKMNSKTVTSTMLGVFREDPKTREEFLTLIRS
In words: Direct effect on catalysis of GTPCH. Type of series: biochemical. The note with it: not illustrated.

For the next series, the system named is COX-2 mRNA. The series is described as follows: Expression of COX-2 genes in LPS-stimulated BV-2 cells (RT-PCR). It is filed as cell-based, mouse. The method, then: RT-PCR for GTPCH, iNOS, TNF-α, IL-1β and COX-2
5 ? each of total RNA samples isolated from BV-2 cells were subjected to reverse-transcription (RT), and then polymerase chain reaction (PCR) for 30 cycles under the conditions of 94° C. for 30 seconds, 60° C. for 40 seconds and 72° C. for one minute. Primers used in the PCR were as follows: iNOS (forward, ATGTCCGAAG-CAAACATCAC; reverse, TAATGTC CAGGAAGTAGGTG), TNF-α (forward, CA-[…] reverse, CAGAGCAATGACTC-CAAAGTAGACCT), IL-1β (forward, […]; reverse, CAGGACAGGTAT AGATTCTTTCCTTT), COX-2 (forward, […]; reverse, […]), GTPCH (forward, GGATACCAGGAGACCAT CTCA; reverse, TAGCATGGTGC-TAGTGACAGT). RT-PCR for B2M was simultaneously performed as internal control. The PCR products were subjected to electrophoresis in a 1.5% agarose gel, thereby confirming the presence of a desired size of single band.
The gene expression of cyclooxigenase-2 (COX-2) stimulating a prostaglandin synthesis causing oxidative stress to neurons increased by the activation of a microglial cell. LPS-stimulated BV-2 cell samples were treated with various concentrations of EHMTIQ (11a), and the expression of COX-2 genes was estimated by RT-PCR. The results are illustrated in FIG. 5.

Series [2] is described as follows: Drug stability against liver microsomal enzymes. Type of series: in vitro ADME, rat. The method, then: Evaluation for Drug Stability
1 mM EHMTIQ (11a) was added to 1 mg samples of white rat liver microsomes, and the samples were incubated at 37° C. for 0, 30, 120 and 240 minutes in the presence of a NADPH-regeneration system (2.6 mM β-NADP^+, 10 mM glucose-6-phosphate, 4 UI/ml glucose-6-phosphate dehydrogenase and 10 mM MgCl2). Perchloric acid was added to the sample to make a final concentration of 500 mM and then the reaction was stopped. The reaction mixture was centrifuged at 16,000×g for 20 minutes. The supernatant solution (120 l) was purified using a Waters HPLC system [717 plus autosampler, 515 pump, and Symmetry C18 column (4.6 mm×150 mm, […])] using a 5-30% linear gradient of acetonitrile as mobile phase. EHMTIQ (11a) was detected at 254 nm using a Waters 486 UV detector and analyzed using EMPOWER software (Millipore Corporation, Milford, Mass., USA).
Since almost all micromolecules are degraded by enzymes in the liver, the stability of a medicine to these enzymes is very important. To evaluate bioavailability of EHMTIQ (11a) in vivo, the degradation rate of EHMTIQ (11a) by liver microsomal enzyme was measured, and neutralized to remaining EHMTIQ after exposure to liver microsomes.
In general terms: Liver microsomes are a subcellular fraction often used to study metabolism.

Regarding `CCC(=O)N1CCc2cc(OC)c(O)cc2C1` [EHMTIQ (11a), 2-ethylcarbonyl-7-hydroxy-6-methoxy-1,2,3,4-tetrahydroisoquinoline], the “toxicity to a mouse liver cell” value with mouse liver cell is reported as “non-toxicity”. For the same compound, the superoxide production in the series on BV-2 cell (5 (unit as image)) was found to be 62±3.1%; in the series with BV-2 cell (10 (unit as image)) it was 65±3.1%. In addition, the “NF-kB p65 in nuclear fraction” value with NF-kB p65 was “completely inhibited”. Further, the “direct effect on catalysis of GTPCH” value in series [1] is listed as “did not directly relate to the catalysis of GTPCH”. The COX-2 expression is recorded as 62±3% in the series with COX-2 mRNA (2.5 (unit as image)), 75±3% with COX-2 mRNA (5 (unit as image)) and 83±2% with COX-2 mRNA (10 (unit as image)). Also, in series [2] (2-hour exposure to liver microsomes), the EHMTIQ degraded result is reported as “about 12.52%”. This compound showed an EHMTIQ remained in series [2] (30-minute exposure to liver microsomes) of approximately 95%. Also, the “degeneration rate of EHMTIQ” value in series [2] (liver microsomes, NADPH-regeneration system) is on record as 1.115±0.203 nmole (EHMTIQ)/min/mg (liver microsomal protein).
